Assay results reported in patent US20240383900A1, “SUBSTITUTED PYRAZOLO [1,5-A]PYRIMIDINE-7-AMINE COMPOUNDS AS CDK INHIBITORS AND THEIR THERAPEUTIC USE” (Carrick Therapeutics Limited, priority 2021, published 2024).
Like-named read-outs stand apart in the source and are kept apart here.

How the values were obtained:
A673 cells [1] = experiment: Cytotoxicity in A673 cells (Cell Titer Glo viability); format: cell-based; conditions: for Ratio of Biochemical Potency:Cellular Potency: CDK12 IC50 / A673 IC50; for IC50: Homo sapiens
Method in brief: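 Cells plated at 1.2×10^5 per well in DMEM+10% FBS, 24 h, then compound series ± MLN4924 (30 nM final) in 0.1% DMSO for 72 h. Viability by Cell Titer Glo luminescence, normalised to vehicle (100%) and 0.1% Triton x-100 (0%); MLN4924 curves normalised to MLN4924-treated controls.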

Human CDK7/CycH/MAT1 = Human CDK7/CycH/MAT1 (Homo sapiens (Human), UniProt P50613); experiment: Radiometric protein kinase assay (33PanQinase Activity Assay), CDK7; format: biochemical; conditions: ATP 3 μM
A673 cells [2] = experiment: A673 cytotoxic potency shift in the presence of MLN4924 (cyclin K degrader activity); format: cell-based; conditions: 30 nM MLN4924, 72 hours
Method: Inhibition of cell viability by test compounds was assessed in A673 cells (ATCC CRL-1598) and the compound mode of action was attributed to a “molecular-glue”/cyclin K-degradation mechanism by probing for a loss of compound potency in the presence of the NEDD8-activating enzyme inhibitor, MLN4924.
Cells were plated in 96-well plates at a density of […] viable cells per well in 200 μL fully supplemented growth medium (DMEM+10% heat inactivated foetal bovine serum) and incubated for 24 hours in standard tissue culture conditions. Compounds, including MLN4924, were solubilised in DMSO and then diluted in fully supplemented growth medium at 2× their final assay concentration such that the final DMSO concentration was 0.1%. Growth medium in the assay plates was replaced with 50 μL of growth medium containing 2×MLN4924 (final assay concentration: 30 nM, where tested) or vehicle only and 50 μL of growth medium containing a 2× compound concentration series or vehicle only such that each compound was at 1× final assay concentration in 100 μL.
Cells were then incubated for 72 hours in standard tissue culture conditions before viability was assessed using 50 μL Cell Titer Glo reagent (Promega) per well and luminescence measured on an EnVision plate reader. Data were normalised to vehicle control (100%) and cells treated with 0.1% Triton x-100 for 1 hour before viability measurement (0%; full cell kill). IC50 values were determined using a semi-logistic curve fit with parameters “top” fixed at 100% and “bottom” at or below 0%. Viability curves generated in the presence of MLN4924 were normalised and fixed to controls treated with MLN4924.

Human CDK12 wt/CycK = Human CDK12 wt/CycK (Homo sapiens (Human), UniProt Q9NYV4); experiment: Radiometric protein kinase assay (33PanQinase Activity Assay), CDK12; format: biochemical; conditions: for CDK7/CDK12: ratio of CDK7 IC50 to CDK12 IC50, greater than 1 indicates selectivity for CDK12
Method in brief: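 Radiometric 33P assay: ATP, test compound (in 10% DMSO) and premixed substrate/enzyme incubated 60 min at 30 °C, stopped with 2% H3PO4. 33Pi incorporation counted by scintillation; least-squares curve fit.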

[3] = A673, read-out: Cellular Potency IC50 (nM) (in A673 cells)
[4] = A673 cells, 72 hours, read-out: A673 IC50
[5] = ATP 0.3 μM, read-out: CDK12 IC50
[6] = read-out: CKD12 Biochemical Potency IC50

Human CDK12 wt/CycK, sequence (Q9NYV4 whole entry): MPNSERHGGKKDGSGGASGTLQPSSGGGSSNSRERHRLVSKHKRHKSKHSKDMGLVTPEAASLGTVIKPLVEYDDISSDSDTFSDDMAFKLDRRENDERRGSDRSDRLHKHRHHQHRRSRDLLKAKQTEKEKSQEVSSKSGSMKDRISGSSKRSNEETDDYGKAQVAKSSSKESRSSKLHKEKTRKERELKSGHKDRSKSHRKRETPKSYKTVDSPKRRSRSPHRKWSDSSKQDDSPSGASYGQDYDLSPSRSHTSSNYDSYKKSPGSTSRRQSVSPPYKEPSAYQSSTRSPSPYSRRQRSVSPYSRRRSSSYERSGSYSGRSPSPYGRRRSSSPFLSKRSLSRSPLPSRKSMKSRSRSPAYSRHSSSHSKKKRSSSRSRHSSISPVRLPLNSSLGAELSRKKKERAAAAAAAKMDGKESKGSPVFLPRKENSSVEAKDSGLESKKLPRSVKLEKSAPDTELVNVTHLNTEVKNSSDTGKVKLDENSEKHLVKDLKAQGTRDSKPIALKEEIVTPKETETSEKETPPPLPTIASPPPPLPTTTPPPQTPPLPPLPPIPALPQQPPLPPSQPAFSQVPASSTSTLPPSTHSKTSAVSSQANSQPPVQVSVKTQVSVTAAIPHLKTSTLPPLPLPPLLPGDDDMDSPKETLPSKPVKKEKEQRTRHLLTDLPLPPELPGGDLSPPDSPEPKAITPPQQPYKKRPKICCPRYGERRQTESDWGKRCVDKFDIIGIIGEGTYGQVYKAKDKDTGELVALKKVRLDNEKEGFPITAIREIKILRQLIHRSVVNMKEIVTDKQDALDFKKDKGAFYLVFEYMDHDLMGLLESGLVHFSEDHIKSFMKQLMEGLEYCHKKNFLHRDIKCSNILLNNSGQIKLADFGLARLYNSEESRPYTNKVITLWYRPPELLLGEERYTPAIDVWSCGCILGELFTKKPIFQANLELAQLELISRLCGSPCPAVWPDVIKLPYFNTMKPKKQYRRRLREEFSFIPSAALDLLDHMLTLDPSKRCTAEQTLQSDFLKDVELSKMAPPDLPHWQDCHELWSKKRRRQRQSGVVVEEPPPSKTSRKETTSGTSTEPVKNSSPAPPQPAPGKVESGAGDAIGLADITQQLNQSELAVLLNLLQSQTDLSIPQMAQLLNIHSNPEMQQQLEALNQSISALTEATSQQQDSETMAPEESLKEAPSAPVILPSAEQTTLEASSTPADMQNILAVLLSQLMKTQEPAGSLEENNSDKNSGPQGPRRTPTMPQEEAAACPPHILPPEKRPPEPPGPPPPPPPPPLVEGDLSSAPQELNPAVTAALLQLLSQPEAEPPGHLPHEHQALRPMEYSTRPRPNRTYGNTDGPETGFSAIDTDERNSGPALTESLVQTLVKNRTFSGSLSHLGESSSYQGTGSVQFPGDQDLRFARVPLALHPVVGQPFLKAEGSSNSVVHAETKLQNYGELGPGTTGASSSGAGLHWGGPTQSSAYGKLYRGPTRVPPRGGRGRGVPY
Human CDK12 wt/CycK, sequence (O75909 whole entry partner): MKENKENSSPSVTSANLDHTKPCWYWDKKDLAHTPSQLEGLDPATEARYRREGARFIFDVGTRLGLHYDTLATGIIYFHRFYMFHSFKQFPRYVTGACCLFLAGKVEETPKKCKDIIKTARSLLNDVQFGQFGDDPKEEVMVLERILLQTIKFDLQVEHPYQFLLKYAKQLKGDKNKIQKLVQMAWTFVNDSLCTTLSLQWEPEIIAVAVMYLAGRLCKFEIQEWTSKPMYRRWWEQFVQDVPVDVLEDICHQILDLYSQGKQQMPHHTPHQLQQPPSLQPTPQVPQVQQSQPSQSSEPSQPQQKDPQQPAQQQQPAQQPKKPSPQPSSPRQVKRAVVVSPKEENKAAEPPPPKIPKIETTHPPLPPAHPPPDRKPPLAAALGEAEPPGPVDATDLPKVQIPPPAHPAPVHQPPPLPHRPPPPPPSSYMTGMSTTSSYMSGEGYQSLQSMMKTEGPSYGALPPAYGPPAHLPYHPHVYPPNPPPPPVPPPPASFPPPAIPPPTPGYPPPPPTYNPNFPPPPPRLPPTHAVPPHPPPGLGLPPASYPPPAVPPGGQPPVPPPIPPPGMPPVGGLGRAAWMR
Human CDK7/CycH/MAT1, sequence (P50613 whole entry): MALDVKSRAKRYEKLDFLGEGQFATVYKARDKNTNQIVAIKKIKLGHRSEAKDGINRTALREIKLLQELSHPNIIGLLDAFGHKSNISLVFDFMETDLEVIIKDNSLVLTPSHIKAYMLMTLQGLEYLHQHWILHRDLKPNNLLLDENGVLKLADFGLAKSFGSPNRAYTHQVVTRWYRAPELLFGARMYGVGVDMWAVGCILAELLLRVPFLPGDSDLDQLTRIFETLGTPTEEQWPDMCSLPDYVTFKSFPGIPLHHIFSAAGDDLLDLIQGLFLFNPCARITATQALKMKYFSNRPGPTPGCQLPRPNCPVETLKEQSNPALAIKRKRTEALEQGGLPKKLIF
Human CDK7/CycH/MAT1, sequence (P51946 whole entry partner): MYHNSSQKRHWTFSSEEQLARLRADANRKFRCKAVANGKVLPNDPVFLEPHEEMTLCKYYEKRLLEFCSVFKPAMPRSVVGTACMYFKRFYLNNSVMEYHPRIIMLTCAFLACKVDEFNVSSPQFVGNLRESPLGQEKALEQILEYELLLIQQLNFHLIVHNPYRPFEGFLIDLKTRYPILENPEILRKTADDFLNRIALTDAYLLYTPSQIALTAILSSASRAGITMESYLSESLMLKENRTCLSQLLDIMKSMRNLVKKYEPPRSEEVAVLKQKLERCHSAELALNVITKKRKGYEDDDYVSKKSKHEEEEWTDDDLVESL
Human CDK7/CycH/MAT1, sequence (P51948 whole entry partner): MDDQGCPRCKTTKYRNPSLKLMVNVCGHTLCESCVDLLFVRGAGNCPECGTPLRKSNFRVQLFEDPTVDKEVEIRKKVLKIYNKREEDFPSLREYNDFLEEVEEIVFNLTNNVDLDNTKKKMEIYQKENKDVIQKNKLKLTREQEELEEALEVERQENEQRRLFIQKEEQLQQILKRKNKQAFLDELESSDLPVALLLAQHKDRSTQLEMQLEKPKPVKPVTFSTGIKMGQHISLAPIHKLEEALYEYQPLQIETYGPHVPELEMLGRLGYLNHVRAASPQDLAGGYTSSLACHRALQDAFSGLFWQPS

Structure (SMILES)	Ratio of Biochemical Potency:Cellular Potency (A673 cells [1])	IC50 (A673 cells [1]; [3])	IC50 (A673 cells [1]; [4])	IC50 (Human CDK7/CycH/MAT1)	Cyclin K Degrader Activity (A673 potency shift + MLN4924) (A673 cells [2])	IC50 (Human CDK12 wt/CycK; [5])	CDK7/CDK12 (Human CDK12 wt/CycK)	IC50 (Human CDK12 wt/CycK; [6])
O[C@H]1CNCC[C@@H]1CNc1cc(NCc2ccc(-c3ccccn3)cc2F)n2ncc(C3CC3)c2n1 [PPA-020]	30.00	3.3 nM	3.3 nM	311 nM	+++ (>5 fold change.)	99 nM	3.1	99 nM
c1ccc(-c2ccc(CNc3cc(N[C@H]4CCNC4)nc4c(C5CC5)cnn34)cc2)nc1 [PPA-037]	40.00	0.7 nM	0.7 nM	250 nM	+++ (>5 fold change.)	28 nM	8.9	28 nM
CN(c1cc(NCc2ccc(-c3ccccn3)cc2)n2ncc(C3CC3)c2n1)C1CCNCC1 [PPA-039]	60.36	2.8 nM	2.8 nM	2090 nM	+ (>1 and ≤2 fold change.)	169 nM	12.4	169 nM
c1ccc(-c2ccc(CNc3cc(NCC4CCNCC4)nc4c(C5CC5)cnn34)cc2)nc1 [PPA-040]	36.78	20.2 nM	20.2 nM	6920 nM	+++ (>5 fold change.)	743 nM	9.3	743 nM
c1ccc(-c2ccc(CNc3cc(N[C@H]4CCCNC4)nc4c(C5CC5)cnn34)cc2)nc1 [PPA-044]	18.89	2.7 nM	2.7 nM	338 nM	+++ (>5 fold change.)	51 nM	6.6	51 nM
c1ccc(-c2ccc(CNc3cc(NC4CNC4)nc4c(C5CC5)cnn34)cc2)nc1 [PPA-047]	1.79	17.3 nM	17.3 nM	892 nM	++ (>2 and ≤5 fold change.)	31 nM	28.8	31 nM
c1ccc(-c2ccc(CNc3cc(OC4CNC4)nc4c(C5CC5)cnn34)cc2)nc1 [PPA-049]	4.64	6.9 nM	6.9 nM	982 nM	+++ (>5 fold change.)	32 nM	30.7	32 nM
c1ccc(-c2ccc(CNc3cc(OCC4CNC4)nc4c(C5CC5)cnn34)cc2)nc1 [PPA-055]	5.38	24.9 nM	24.9 nM	2390 nM	++ (>2 and ≤5 fold change.)	134 nM	17.8	134 nM
c1ccc(-c2ccc(CNc3cc(C4CNC4)nc4c(C5CC5)cnn34)cc2)nc1 [PPA-058]	29.57	6.9 nM	6.9 nM	5260 nM	+++ (>5 fold change.)	204 nM	25.8	204 nM
O[C@H]1CNCC[C@@H]1CNc1cc(NCc2ccc(-c3ccccc3)cc2)n2ncc(C3CC3)c2n1 [PPA-059]	12.54	12.6 nM	12.6 nM	637 nM	+++ (>5 fold change.)	158 nM	4.0	158 nM
c1ccc(-c2ccc(CNc3cc(O[C@@H]4CCNC4)nc4c(C5CC5)cnn34)cc2)nc1 [PPA-060]	26.55	2.9 nM	2.9 nM	2870 nM	+++ (>5 fold change.)	77 nM	37.3	77 nM
